Target: T1, recombinant guanylate cyclase reporter cell line (Rattus norvegicus, UniProt P19686+P20595)
T1 construct: expressed in transfected cells; host or cells: recombinant reporter cell line
T1 sequence (P19686 1-690): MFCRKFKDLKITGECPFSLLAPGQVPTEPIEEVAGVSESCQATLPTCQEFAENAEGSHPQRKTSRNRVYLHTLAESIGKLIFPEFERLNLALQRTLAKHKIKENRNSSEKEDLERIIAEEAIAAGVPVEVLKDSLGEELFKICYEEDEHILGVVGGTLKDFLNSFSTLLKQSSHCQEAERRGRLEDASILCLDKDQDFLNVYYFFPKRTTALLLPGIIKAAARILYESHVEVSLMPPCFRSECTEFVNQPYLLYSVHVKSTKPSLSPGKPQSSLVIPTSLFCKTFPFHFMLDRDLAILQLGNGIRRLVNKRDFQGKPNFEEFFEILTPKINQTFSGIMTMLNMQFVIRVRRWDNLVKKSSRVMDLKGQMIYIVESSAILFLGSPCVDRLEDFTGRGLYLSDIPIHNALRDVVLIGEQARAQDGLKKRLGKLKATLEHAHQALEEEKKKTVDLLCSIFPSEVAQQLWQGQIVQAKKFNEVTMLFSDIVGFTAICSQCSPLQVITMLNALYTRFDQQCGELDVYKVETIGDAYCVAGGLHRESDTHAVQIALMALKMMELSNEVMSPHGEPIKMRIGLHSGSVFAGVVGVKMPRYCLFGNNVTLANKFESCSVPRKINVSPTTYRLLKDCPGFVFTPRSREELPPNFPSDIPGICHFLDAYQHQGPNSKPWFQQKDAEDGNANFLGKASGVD
T1 sequence (P20595 1-619): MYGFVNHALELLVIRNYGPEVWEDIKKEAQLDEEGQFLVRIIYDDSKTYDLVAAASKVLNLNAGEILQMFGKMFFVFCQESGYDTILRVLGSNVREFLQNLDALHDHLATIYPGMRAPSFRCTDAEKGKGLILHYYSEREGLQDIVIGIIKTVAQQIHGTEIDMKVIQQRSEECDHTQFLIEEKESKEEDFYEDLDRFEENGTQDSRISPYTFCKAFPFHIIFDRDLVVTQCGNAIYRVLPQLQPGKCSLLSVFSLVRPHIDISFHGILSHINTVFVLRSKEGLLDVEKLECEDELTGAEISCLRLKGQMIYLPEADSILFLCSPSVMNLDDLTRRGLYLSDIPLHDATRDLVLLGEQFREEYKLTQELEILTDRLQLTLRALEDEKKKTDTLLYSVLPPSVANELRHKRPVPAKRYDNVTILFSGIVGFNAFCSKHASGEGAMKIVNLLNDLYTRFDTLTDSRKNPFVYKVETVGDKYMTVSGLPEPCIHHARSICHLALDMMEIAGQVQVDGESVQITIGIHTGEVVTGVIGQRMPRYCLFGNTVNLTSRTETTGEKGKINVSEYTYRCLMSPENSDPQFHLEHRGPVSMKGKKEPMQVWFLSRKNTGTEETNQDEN
Test: Action on recombinant guanylate cyclase reporter cell line
Assay type: cell-based
Settings: in some cases mean values from individual determinations
Summary of the method: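 Cellular activity was measured in a reporter cell line expressing recombinant guanylate cyclase. Values are given as MEC, the minimal effective concentration, and some are means of individual determinations.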

Row | MEC (minimal effective concentration) | Structure (SMILES)
1 | 1.00 µM | Cc1cc(OCc2c(F)cccc2F)c2nc(C)c(C(=O)NC3CCCC(N)C3)n2c1 (stereo not shown) [Example 160, N-(3-aminocyclohexyl)-8-[(2,6-difluorobenzyl)oxy]-2,6-dimethylimidazo[1,2-a]-pyridine-3-carboxamide]
2 | 3.00 µM | Cc1cc(OCc2c(F)cccc2F)c2nc(C)c(C(=O)NCCN3CC(N4CCCC4)C3)n2c1 [Example 162, 8-[(2,6-difluorobenzyl)oxy]-2,6-dimethyl-N-{2-[3-(pyrrolidin-1-yl)azetidin-1-yl]ethyl}imidazo[1,2-a]pyridine-3-carboxamide]
3 | 0.30 µM | Cc1cc(OCc2c(F)cccc2F)c2nc(C)c(C(=O)NCCN3CCC(F)(F)CC3)n2c1 [Example 163, 8-[(2,6-difluorobenzyl)oxy]-N-[2-(4,4-difluoro-piperidin-1-yl)ethyl]-2,6-dimethylimidazo[1,2-a]pyridine-3-carboxamide]
4 | 0.10 µM | Cc1cc(OCc2c(F)cccc2F)c2nc(C)c(C(=O)NCCN(CC(F)F)C3CC3)n2c1 [Example 164, N-{2-[cyclopropyl(2,2-difluoroethyl)amino]ethyl}-8-[(2,6-difluorobenzyl)oxy]-2,6-dimethylimidazo[1,2-a]-pyridine-3-carboxamide]
5 | 0.10 µM | Cc1cc(OCc2c(F)cccc2F)c2nc(C)c(C(=O)NCC3(N)CCC3)n2c1 [Example 165, N-[(1-aminocyclobutyl)methyl]-8-[(2,6-difluorobenzyl)oxy]-2,6-dimethylimidazo[1,2-a]-pyridine-3-carboxamide]
6 | 1.00 µM | Cc1cc(OCc2c(F)cccc2F)c2nc(C)c(C(=O)NCCN3C[C@@H](C)O[C@@H](C)C3)n2c1 [Example 167, 8-[(2,6-difluorobenzyl)oxy]-N-{2-[(2R,6S)-2,6-dimethylmorpholin-4-yl]ethyl}-2,6-dimethyl-imidazo[1,2-a]pyridine-3-carboxamide]
7 | 0.30 µM | Cc1cc(OCc2c(F)cccc2F)c2nc(C)c(C(=O)NC[C@@H]3CCCCN3)n2c1 [Example 172, 8-[(2,6-Difluorobenzyl)oxy]-2,6-dimethyl-N-[(2S)-piperidin-2-ylmethyl]imidazo[1,2-a]pyridine-3-carboxamide]
8 | 1.00 µM | Cc1cc(OCc2c(F)cccc2F)c2nc(C)c(C(=O)NCC3(N)COC3)n2c1 [Example 216, N-[(3-Aminooxetan-3-yl)methyl]-8-[(2,6-difluorobenzyl)oxy]-2,6-dimethylimidazo[1,2-a]pyridine-3-carboxamide]
9 | 3.00 µM | Cc1cc(OCc2c(F)cccc2F)c2nc(C)c(C(=O)N[C@@H]3CCCC[C@H]3N)n2c1 [Example 251, ent-N-[(1R,2R)-2-Aminocyclohexyl]-8-[(2,6-difluorobenzyl)oxy]-2,6-dimethylimidazo[1,2-a]-pyridine-3-carboxamide]
10 | 0.30 µM | Cc1cc(OCc2c(F)cccc2F)c2nc(C)c(C(=O)NCCNC(C)(C)C)n2c1 [Example 255, N-[2-(tert-Butylamino)ethyl]-8-[(2,6-difluorobenzyl)oxy]-2,6-dimethylimidazo[1,2-a]pyridine-3-carboxamide]
11 | 0.30 µM | Cc1cc(OCc2c(F)cccc2F)c2nc(C)c(C(=O)N[C@H]3C[C@H]4CN(C)CCN4C3)n2c1 [Example 314, 8-[(2,6-Difluorobenzyl)oxy]-2,6-dimethyl-N-[(7S,8aS)-2-methyloctahydropyrrolo[1,2-a]pyrazin-7-yl]imidazo[1,2-a]pyridine-3-carboxamide]

The next lines start with the molecule.

Row | Structure (SMILES) | MEC (minimal effective concentration)
12 | Cc1nc2c(OCc3c(F)cccc3F)cc(Cl)cn2c1C(=O)NCCN1CCN(C)CC1 [Example 154, 6-chloro-8-[(2,6-difluorobenzyl)oxy]-2-methyl-N-[2-(4-methylpiperazin-1-yl)ethyl]imidazo[1,2-a]pyridine-3-carboxamide] | 1.00 µM
13 | Cc1nc2c(OCc3c(F)cccc3F)cc(Cl)cn2c1C(=O)NCCN1CC(N2CCCC2)C1 [Example 156, 6-chloro-8-[(2,6-difluorobenzyl)oxy]-2-methyl-N-{2-[3-(pyrrolidin-1-yl)azetidin-1-yl]ethyl}-imidazo[1,2-a]pyridine-3-carboxamide] | 3.00 µM
14 | Cc1nc2c(OCc3c(F)cccc3F)cc(Cl)cn2c1C(=O)NCCN1C[C@@H](C)O[C@@H](C)C1 [Example 158, 6-chloro-8-[(2,6-difluorobenzyl)oxy]-N-{2-[(2R,6S)-2,6-dimethylmorpholin-4-yl]ethyl}-2-methylimidazo[1,2-a]pyridine-3-carboxamide] | 0.30 µM
15 | Cc1nc2c(OCc3c(F)cccc3F)cccn2c1C(=O)NCCN1CCN(C2CC2)CC1 [Example 168, N-[2-(4-Cyclopropylpiperazin-1-yl)ethyl]-8-[(2,6-difluorobenzyl)oxy]-2-methylimidazo[1,2-a]-pyridine-3-carboxamide] | 1.00 µM
16 | Cc1nc2c(OCc3c(F)cccc3F)cccn2c1C(=O)NCCNCC(F)F [Example 169] | 1.65 µM
17 | Cc1nc2c(OCc3c(F)cccc3F)cccn2c1C(=O)N[C@H](C)CN1CCOCC1 [Example 170, 8-[(2,6-difluorobenzyl)oxy]-2-methyl-N-[(2R)-1-(morpholin-4-yl)propan-2-yl]imidazo[1,2-a]-pyridine-3-carboxamide] | 3.00 µM
18 | Cc1nc2c(OCc3c(F)cccc3F)cccn2c1C(=O)N[C@@H](C)CN1CCOCC1 [Example 171, 8-[(2,6-difluorobenzyl)oxy]-2-methyl-N-[(2S)-1-(morpholin-4-yl)propan-2-yl]imidazo[1,2-a]-pyridine-3-carboxamide] | 1.00 µM
19 | CCC(N)(CC)CNC(=O)c1c(C)nc2c(OCc3c(F)cccc3F)cccn12 [Example 253, N-(2-Amino-2-ethylbutyl)-8-[(2,6-difluorobenzyl)oxy]-2-methylimidazo[1,2-a]pyridine-3-carboxamide] | 0.10 µM
20 | CCCC(C)(N)CNC(=O)c1c(C)nc2c(OC(C)c3c(F)cccc3F)cc(C)cn12 (stereo not shown) [Example 257, N-(2-Amino-2-methylpentyl)-8-[1-(2,6-difluorophenyl)ethoxy]-2,6-dimethylimidazo[1,2-a]-pyridine-3-carboxamide] | 1.00 µM
21 | COC(=O)[C@@H](N)CCCCNC(=O)c1c(C)nc2c(OCc3c(F)cccc3F)cc(C)cn12 [Example 294, Methyl N^6-({8-[(2,6-difluorobenzyl)oxy]-2,6-dimethylimidazo[1,2-a]pyridin-3-yl}carbonyl)-L-lysinate] | 0.065 µM
22 | CCCC(C)(N)CNC(=O)c1c(C(F)(F)F)nc2c(OCc3c(F)cccc3F)cc(C)cn12 (stereo not drawn) [Example 305, ent-N-(2-amino-2-methylpentyl)-8-[(2,6-difluorobenzyl)oxy]-6-methyl-2-(trifluoromethyl)imidazo[1,2-a]pyridine-3-carboxamide] | 0.10 µM
23 | CCCC(C)(N)CNC(=O)c1c(C)nc2c(OCc3c(F)cccc3F)cc(Br)cn12 (stereo not drawn) [Example 306, ent-N-(2-amino-2-methylpentyl)-6-bromo-8-[(2,6-difluorobenzyl)oxy]-2-methylimidazo[1,2-a]pyridine-3-carboxamide] | 0.10 µM
24 | CCC(C)(CN)NC(=O)c1c(C)nc2c(OCc3c(F)ccc(F)c3F)cc(C)cn12 (stereo not drawn) [Example 315, ent-N-(1-amino-2-methylbutan-2-yl)-2,6-dimethyl-8-[(2,3,6-trifluorobenzyl)oxy]imidazo[1,2-a]pyridine-3-carboxamide] | 0.30 µM
25 | CCCC(C)(N)CNC(=O)c1c(C)nc2c(OCc3c(F)cccc3F)cccn12 (stereo not drawn) [Example 318, ent-N-(2-amino-2-methylpentyl)-8-[(2,6-difluorobenzyl)oxy]-2-methylimidazo[1,2-a]pyridine-3-carboxamide] | 0.30 µM
